In brackets after ≈: the same amount, converted by molar mass. Where two headings read alike, the source gives them in different places.
Tests used:
[1] = test system: S. aureus Smith; assay: Median curative dose in mice, infection with S. aureus Smith; assay type: in vivo; conditions: Staphylococcus aureus, sc; mice, S. aureus Smith infection, Table 5; read-out: PD50
Excerpt: (§1) Median Curative Dose in Mgm./Kg.
(§2) Upon Subcutaneous Injection in Mice

[2] = test system: Ps. aeruginosa A9843; assay: Median curative dose in mice, infection with Ps. aeruginosa; assay type: in vivo; conditions: Pseudomonas aeruginosa, A9843, sc, mice, P. aerug. A9843 infection, Table 5; read-out: PD50
Excerpt: as §1, §2

[3] = test system: S. marcescens; assay: MIC by serial two-fold agar dilution (Mueller-Hinton agar), S. marcescens; assay type: cell-based; conditions: Serratia marcescens, read-out: MIC
Description: (§3) Minimum inhibitory concentrations (MIC) of BB-S520 were determined by serial two-fold agar dilution method using Steers' apparatus on Meuller-Hinton agar plate against 31 test organisms for the primary screening and also against 61 strains of Pseudomonas aeruginosa for the secondary evaluation. The results are shown in Table 1 and Table 2 along with those of BB-S514 and sulbenicillin.
(§4) Minimum inhibitory concentrations (MIC) of cephalosporins in the present study were determined by serial two-fold agar dilution method using Steers' apparatus on Mueller-Hinton agar plate against 31 test organisms for the primary screening and also against 61 strains of Pseudomonas aeruginosa for the secondary evaluation.

[4] = test system: E. coli Juhl; assay: Median curative dose in mice, infection with E. coli Juhl; assay type: in vivo; conditions: Escherichia coli, sc; mice, E. coli Juhl infection, Table 5; read-out: PD50
Excerpt: as §1, §2

[5] = test system: Klebsiella sp.; assay: MIC by serial two-fold agar dilution (Mueller-Hinton agar), Klebsiella sp.; assay type: cell-based; conditions: read-out: MIC
Description: as §3, §4

[6] = test system: K. pneumoniae; assay: MIC by serial two-fold agar dilution (Mueller-Hinton agar), K. pneumoniae; assay type: cell-based; conditions: Klebsiella pneumoniae
Description: as §3, §4

[7] = test system: P. aeruginosa; assay: MIC by serial two-fold agar dilution (Mueller-Hinton agar), P. aeruginosa, primary screening; assay type: cell-based; conditions: Pseudomonas aeruginosa, read-out: MIC
Description: as §3, §4

[8] = test system: P. morganii; assay: MIC by serial two-fold agar dilution (Mueller-Hinton agar), P. morganii; assay type: cell-based; conditions: Morganella morganii, read-out: MIC
Description: as §3, §4

[9] = test system: S. aureus; assay: MIC by serial two-fold agar dilution (Mueller-Hinton agar), S. aureus; assay type: cell-based; conditions: Staphylococcus aureus
Description: as §3, §4

[10] = test system: P. vulgaris; assay: MIC by serial two-fold agar dilution (Mueller-Hinton agar), P. vulgaris; assay type: cell-based; conditions: Proteus vulgaris, read-out: MIC
Description: as §3, §4

[11] = test system: Pseudomonas (6 strains); assay: Mean % relative activity (MIC) vs sulbenicillin, Pseudomonas (6 strains); assay type: cell-based
Description: as §3, §4

[12] = test system: E. coli; assay: MIC by serial two-fold agar dilution (Mueller-Hinton agar), E. coli; assay type: cell-based; conditions: Escherichia coli
Description: as §3, §4

`NC(=O)OCC1=C(C(=O)O)N2C(=O)C(NC(=O)[C@H](NC(=O)c3cnc4cccnc4c3O)c3ccc(O)cc3)C2SC1` (single isomer, unassigned) [BB-S530, Sodium 7-[D-(-)-α-(4-hydroxy-1,5-naphthyridine-3-carboxamido)-α-(p-hydroxyphenyl)acetamido]-3-carbamoyloxymethyl-3-cephem-4-carboxylate] gave an ED50 [1] of 1.3 mg/kg, an ED50 [2] of 9.3 mg/kg and an MIC ([3]; S. marcescens A20019, Table 6) of over 100 µg/mL. It also gave an ED50 [4] of 1.8 mg/kg, an MIC ([5]; Klebsiella sp. A20452, Table 6) of 1.6 µg/mL and an MIC ([6]; K. pneumoniae A9977, Table 6) of 1.6 µg/mL. It also gave an MIC ([7]; P. aeruginosa A9843, Table 6) of 1.6 µg/mL, an MIC ([7]; P. aeruginosa A9930, Table 6) of 0.8 µg/mL and an MIC ([7]; P. aeruginosa A15150, Table 6) of 1.6 µg/mL. The MIC ([7]; P. aeruginosa A20229, Table 6) was 1.6 µg/mL, the MIC ([7]; P. aeruginosa A20717, Table 6) was 3.1 µg/mL and the MIC ([8]; P. morganii A9553, Table 6) was over 100 µg/mL. For the same compound, the MIC ([9]; S. aureus BX-1633 A9606, Table 6, read-out: MIC) was 3.1 µg/mL, the MIC ([9]; S. aureus Smith A9537, Table 6, read-out: MIC) was 1.6 µg/mL and the MIC ([9]; S. aureus Smith A15907, Table 6) was 25 µg/mL. For the same compound, the MIC ([9]; S. aureus Smith A20239, Table 6, read-out: MIC) was 3.1 µg/mL, the MIC ([9]; S. aureus Smith A20240, Table 6, read-out: MIC) was 3.1 µg/mL and the MIC ([9]; S. aureus Smith A20701, Table 6, read-out: MIC) was 25 µg/mL. The MIC ([10]; P. vulgaris A9539, Table 6) was over 100 µg/mL, the “Mean % Relative Activity (SPBC = 100%)” value ([11]; P. aerug. (6 strains), Table 5) was 1425% and the MIC ([12]; E. coli A9435, Table 6, read-out: MIC) was 3.1 µg/mL. The MIC ([12]; E. coli A9844, Table 6, read-out: MIC) was 0.4 µg/mL, the MIC ([12]; E. coli A10664, Table 6, read-out: MIC) was 0.2 µg/mL and the MIC ([12]; E. coli A20366, Table 6, read-out: MIC) was over 100 µg/mL. It also gave an MIC ([12]; E. coli A20520, Table 6, read-out: MIC) of 3.1 µg/mL, an MIC ([12]; E. coli A20732, Table 6, read-out: MIC) of 3.1 µg/mL and an MIC ([12]; E. coli A20898, Table 6, read-out: MIC) of 100 µg/mL. It also gave an MIC ([12]; E. coli Juhl A15119, Table 6, read-out: MIC) of 1.6 µg/mL and an MIC ([12]; E. coli NIHJ, Table 6, read-out: MIC) of 1.6 µg/mL.

Work on `CC(=O)OCC1=C(C(=O)O)N2C(=O)C(NC(=O)C(NC(=O)c3cnc4cccnc4c3O)c3ccccc3)C2SC1` (centres unmarked) [BB-S514] yielded an MIC ([3]; S. marcescens, Table 1) of over 100 µg/mL, an MIC ([5]; Klebsiella sp., Table 1) of 12.5 µg/mL (≈ 21.6 µM) and an MIC ([6]; K. pneumoniae, Table 1) of 6.3 µg/mL (≈ 10.9 µM). The MIC ([7]; P. aeruginosa (1st line), Table 1) was 3.1 µg/mL (≈ 5.37 µM), the MIC ([7]; P. aeruginosa (2nd line), Table 1) was 3.1 µg/mL (≈ 5.37 µM) and the MIC ([7]; P. aeruginosa (3rd line), Table 1) was 6.3 µg/mL (≈ 10.9 µM). For the same compound, the MIC ([7]; P. aeruginosa (4th line), Table 1) was 25 µg/mL (≈ 43.3 µM), the MIC ([7]; P. aeruginosa (5th line), Table 1) was 6.3 µg/mL (≈ 10.9 µM) and the MIC ([7]; P. aeruginosa (6th line), Table 1) was 3.1 µg/mL (≈ 5.37 µM). The MIC ([8]; P. morganii, Table 1) was over 100 µg/mL, the MIC ([9]; S. aureus BX-1633, Table 1, read-out: MIC) was 3.1 µg/mL (≈ 5.37 µM) and the MIC ([9]; S. aureus Smith (1st line), Table 1, read-out: MIC) was 3.1 µg/mL (≈ 5.37 µM). For the same compound, the MIC ([9]; S. aureus Smith (2nd line), Table 1, read-out: MIC) was 6.3 µg/mL (≈ 10.9 µM), the MIC ([9]; S. aureus, unnamed strain (4th S. aureus line), Table 1, read-out: MIC) was 25 µg/mL (≈ 43.3 µM) and the MIC ([9]; S. aureus, unnamed strain (5th S. aureus line), Table 1, read-out: MIC) was 6.3 µg/mL (≈ 10.9 µM). For the same compound, the MIC ([9]; S. aureus, unnamed strain (6th S. aureus line), Table 1, read-out: MIC) was over 100 µg/mL, the MIC ([10]; P. vulgaris, Table 1) was 25 µg/mL (≈ 43.3 µM) and the “Mean % Relative Activity (Sulbenicillin = 100%)” value ([11]; Pseudomonas (6 strains), from geometric means of MICs in Table 1) was 283%. The MIC ([12]; E. coli Juhl, Table 1, read-out: MIC) was 12.5 µg/mL (≈ 21.6 µM), the MIC ([12]; E. coli NIHJ, Table 1, read-out: MIC) was 0.1 µg/mL (≈ 0.173 µM) and the MIC ([12]; E. coli, unnamed strain (3rd E. coli line), Table 1) was 0.4 µg/mL (≈ 0.693 µM). For the same compound, the MIC ([12]; E. coli, unnamed strain (4th E. coli line), Table 1, read-out: MIC) was 0.4 µg/mL (≈ 0.693 µM), the MIC ([12]; E. coli, unnamed strain (5th E. coli line), Table 1, read-out: MIC) was over 100 µg/mL and the MIC ([12]; E. coli, unnamed strain (6th E. coli line), Table 1, read-out: MIC) was 6.3 µg/mL (≈ 10.9 µM). It also gave an MIC ([12]; E. coli, unnamed strain (7th E. coli line), Table 1, read-out: MIC) of over 100 µg/mL, an MIC ([12]; E. coli, unnamed strain (8th E. coli line), Table 1, read-out: MIC) of 12.5 µg/mL (≈ 21.6 µM) and an MIC ([12]; E. coli, unnamed strain (9th E. coli line), Table 1, read-out: MIC) of 0.8 µg/mL (≈ 1.39 µM).

— US4138554A, “7-[D-α-(4-Hydroxy-1,5-naphthyridine-3-carboxamido)-α-phenyl (and p-hydroxyphenyl)acetamido]-3-carbamoyloxymethyl-3-cephem-4-carboxylic acids” (priority 1977, dated 1979)
